Laboratory results taken from US20260285850A1, “SUBSTITUTED OXAZOLIDINONES AND IMIDAZOLINONES AS HERBICIDES” (FMC CORPORATION, priority 2023, published 2026).

Columns and labels:
Format in all cases: in vivo
[1] = tested on: ryegrass, Italian (italian ryegrass, Lolium multiflorum); assay: Test A postemergence application, visual injury rating 0-100
Summary of the method: (§1)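 Plants in a loam and sand soil blend were treated with each test chemical, in a non-phytotoxic solvent system including surfactant, either sprayed on seeded soil before emergence or applied after emergence at the one- to two-leaf stage. Ten days later in the greenhouse, plants were compared with untreated controls and visually rated from 0 (no effect) to 100 (complete control).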

[2] = tested on: palmer (palmer amaranth, palmer pigweed, Amaranthus palmeri); assay: as above
Summary of the method: as §1

[3] = tested on: ragweed (common ragweed, Ambrosia artemisiifolia); assay: as above
Summary of the method: as §1

[4] = tested on: green foxtail (Setaria viridis); assay: as above
Summary of the method: as §1

[5] = tested on: oat, wild (wild oat, Avena fatua); assay: as above
Summary of the method: as §1

[6] = tested on: blackgrass (Alopecurus myosuroides); assay: as above
Summary of the method: as §1

kochia (Bassia scoparia) [7] = assay: as above
Summary of the method: as §1

soybean (Glycine max) [8] = assay: as above
Summary of the method: as §1

[9] = tested on: galium (catchweed bedstraw, Galium aparine); assay: as above
Summary of the method: as §1

[10] = tested on: wheat (Triticum aestivum); assay: as above
Summary of the method: as §1

[11] = tested on: horseweed (Erigeron canadensis); assay: as above
Summary of the method: as §1

corn (Zea mays) [12] = assay: as above
Summary of the method: as §1

[13] = tested on: barnyardgrass (Echinochloa crus-galli); assay: as above
Summary of the method: as §1

[14] = tested on: ryegrass, Italian (italian ryegrass, Lolium multiflorum); assay: Test A preemergence soil spray, visual injury rating 0-100; conditions: 10 days
Summary of the method: as §1

[15] = tested on: palmer (palmer amaranth, palmer pigweed, Amaranthus palmeri); assay: as above; conditions: 10 days
Summary of the method: as §1

[16] = tested on: ragweed (common ragweed, Ambrosia artemisiifolia); assay: as above; conditions: 10 days
Summary of the method: as §1

[17] = tested on: green foxtail (Setaria viridis); assay: as above; conditions: 10 days
Summary of the method: as §1

[18] = tested on: oat, wild (wild oat, Avena fatua); assay: as above; conditions: 10 days
Summary of the method: as §1

[19] = tested on: blackgrass (Alopecurus myosuroides); assay: as above; conditions: 10 days
Summary of the method: as §1

kochia (Bassia scoparia) [20] = assay: as above; conditions: 10 days
Summary of the method: as §1

soybean (Glycine max) [21] = assay: as above; conditions: 10 days
Summary of the method: as §1

[22] = tested on: wheat (Triticum aestivum); assay: as above; conditions: 10 days
Summary of the method: as §1

corn (Zea mays) [23] = assay: as above; conditions: 10 days
Summary of the method: as §1

[24] = tested on: barnyardgrass (Echinochloa crus-galli); assay: as above; conditions: 10 days
Summary of the method: as §1

[25] = tested on: barnyardgrass (Echinochloa crusgalli); assay: Test B flooded paddy test, visual plant response rating 0-100; conditions: 250 g ai/ha, Flood, applied to paddy water, evaluated after 13 days
Summary of the method: (§2)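 Plants were grown to the 2-leaf stage, then pots were flooded to 3 cm above the soil and compound was applied directly to the paddy water, with that depth kept throughout.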

rice (Oryza sativa) = assay: as above; conditions: 250 g ai/ha, Flood, applied to paddy water, evaluated after 13 days
Summary of the method: as §2

[26] = tested on: sedge, umbrella (small-flower umbrella sedge, Cyperus difformis); assay: as above; conditions: 250 g ai/ha, Flood, applied to paddy water, evaluated after 13 days
Summary of the method: as §2

[27] = tested on: ducksalad (Heteranthera limosa); assay: as above; conditions: 250 g ai/ha, Flood, applied to paddy water, evaluated after 13 days
Summary of the method: as §2

[28] = 62 g ai/ha, postemergence, 10 days, 0 = no effect, 100 = complete control
[29] = Postemergence, 16 g ai/ha, greenhouse 10 days, 0 no effect, 100 complete control
[30] = 62 g ai/ha, 0 = no effect, 100 = complete control

**Q.** How did the “Ryegrass, Italian plant response rating (0-100)” value [1, 28] turn out when CC(C)COC(=O)C1=CCC(NC(=O)C2(C)CN(c3cc(Cl)cc(Cl)c3)C(=O)O2)C1 (stereo not shown) [Compound 156] was run?
**A.** 70

**Q.** And the “Ryegrass, Italian plant response rating (0 to 100 scale)” value [1, 29]?
**A.** 60

**Q.** What about the “Pigweed, Palmer plant response rating (0-100)” value [2, 28] of the same compound?
**A.** 90

**Q.** What about the “Pigweed, Palmer plant response rating (0 to 100 scale)” value [2, 29] of the same compound?
**A.** 90

**Q.** And the “Ragweed plant response rating (0-100)” value [3, 28]?
**A.** 50

**Q.** And the “Ragweed plant response rating (0 to 100 scale)” value [3, 29]?
**A.** 30

**Q.** And the “Foxtail, Green plant response rating (0-100)” value [4, 28]?
**A.** 90

**Q.** And the “Foxtail, Green plant response rating (0 to 100 scale)” value [4, 29]?
**A.** 80

**Q.** And the “Oat, Wild plant response rating (0-100)” value [5, 28]?
**A.** 70

**Q.** And the “Oat, Wild plant response rating (0 to 100 scale)” value [5, 29]?
**A.** 20

**Q.** And the “Blackgrass plant response rating (0-100)” value [6, 28]?
**A.** 90

**Q.** And the “Blackgrass plant response rating (0 to 100 scale)” value [6, 29]?
**A.** 70

**Q.** And the “Kochia plant response rating (0-100)” value (kochia (Bassia scoparia) [7]; [28])?
**A.** 80

**Q.** What about the “Kochia plant response rating (0 to 100 scale)” value (kochia (Bassia scoparia) [7]; [29]) of the same compound?
**A.** 80

**Q.** What about the “Soybean plant response rating (0-100)” value (soybean (Glycine max) [8]; [28]) of the same compound?
**A.** 60

**Q.** What about the “Soybean plant response rating (0 to 100 scale)” value (soybean (Glycine max) [8]; [29]) of the same compound?
**A.** 50

**Q.** What about the “Galium plant response rating (0-100)” value [9, 28] of the same compound?
**A.** 80

**Q.** And the “Galium plant response rating (0 to 100 scale)” value [9, 29]?
**A.** 80

**Q.** And the “Wheat plant response rating (0-100)” value [10, 28]?
**A.** 70

**Q.** And the “Wheat plant response rating (0 to 100 scale)” value [10, 29]?
**A.** 50

**Q.** And the “Horseweed plant response rating (0-100)” value [11, 28]?
**A.** 80

**Q.** What about the “Horseweed plant response rating (0 to 100 scale)” value [11, 29] of the same compound?
**A.** 30

**Q.** What about the “Corn plant response rating (0-100)” value (corn (Zea mays) [12]; [28]) of the same compound?
**A.** 100

**Q.** What about the “Corn plant response rating (0 to 100 scale)” value (corn (Zea mays) [12]; [29]) of the same compound?
**A.** 90

**Q.** What about the “Barnyardgrass plant response rating (0-100)” value [13, 28] of the same compound?
**A.** 100

**Q.** What about the “Barnyardgrass plant response rating (0 to 100 scale)” value [13, 29] of the same compound?
**A.** 100

**Q.** What about the “Ryegrass, Italian plant response rating” value ([14]; 16 g ai/ha, 0 to 100 scale) of the same compound?
**A.** 0

**Q.** What about the “Ryegrass, Italian plant response rating (0-100)” value [14, 30] of the same compound?
**A.** 30

**Q.** What about the “Pigweed, Palmer plant response rating” value ([15]; 16 g ai/ha, 0 to 100 scale) of the same compound?
**A.** 20

**Q.** What about the “Pigweed, Palmer plant response rating (0-100)” value [15, 30] of the same compound?
**A.** 80

**Q.** And the “Ragweed plant response rating” value ([16]; 16 g ai/ha, 0 to 100 scale)?
**A.** 0

**Q.** And the “Ragweed plant response rating (0-100)” value [16, 30]?
**A.** 0

**Q.** What about the “Foxtail, Green plant response rating” value ([17]; 16 g ai/ha, 0 to 100 scale) of the same compound?
**A.** 40

**Q.** And the “Foxtail, Green plant response rating (0-100)” value [17, 30]?
**A.** 90

**Q.** What about the “Oat, Wild plant response rating” value ([18]; 16 g ai/ha, 0 to 100 scale) of the same compound?
**A.** 0

**Q.** What about the “Oat, Wild plant response rating (0-100)” value [18, 30] of the same compound?
**A.** 0

**Q.** What about the “Blackgrass plant response rating” value ([19]; 16 g ai/ha, 0 to 100 scale) of the same compound?
**A.** 0

**Q.** What about the “Blackgrass plant response rating (0-100)” value [19, 30] of the same compound?
**A.** 30

**Q.** And the “Kochia plant response rating” value (kochia (Bassia scoparia) [20]; 16 g ai/ha, 0 to 100 scale)?
**A.** 20

**Q.** What about the “Kochia plant response rating (0-100)” value (kochia (Bassia scoparia) [20]; [30]) of the same compound?
**A.** 70

**Q.** And the “Soybean plant response rating” value (soybean (Glycine max) [21]; 16 g ai/ha, 0 to 100 scale)?
**A.** 0

**Q.** And the “Soybean plant response rating (0-100)” value (soybean (Glycine max) [21]; [30])?
**A.** 0

**Q.** And the “Wheat plant response rating” value ([22]; 16 g ai/ha, 0 to 100 scale)?
**A.** 10

**Q.** What about the “Wheat plant response rating (0-100)” value [22, 30] of the same compound?
**A.** 50

**Q.** What about the “Corn plant response rating” value (corn (Zea mays) [23]; 16 g ai/ha, 0 to 100 scale) of the same compound?
**A.** 0

**Q.** What about the “Corn plant response rating (0-100)” value (corn (Zea mays) [23]; [30]) of the same compound?
**A.** 50

**Q.** And the “Barnyardgrass plant response rating” value ([24]; 16 g ai/ha, 0 to 100 scale)?
**A.** 0

**Q.** What about the “Barnyardgrass plant response rating (0-100)” value [24, 30] of the same compound?
**A.** 50

**Q.** What about the “Plant response rating, Barnyardgrass (0 to 100 scale, 0 is no effect and 100 is complete control)” value [25] of the same compound?
**A.** 55

**Q.** And the “Plant response rating, Rice (0 to 100 scale, 0 is no effect and 100 is complete control)” value (rice (Oryza sativa))?
**A.** 45

**Q.** And the “Plant response rating, Sedge, Umbrella (0 to 100 scale, 0 is no effect and 100 is complete control)” value [26]?
**A.** 90

**Q.** And the “Plant response rating, Ducksalad (0 to 100 scale, 0 is no effect and 100 is complete control)” value [27]?
**A.** 75
